System: Mythimna separata
Assay: Efficacy test against Mythimna separata (treated artificial feed)
Conditions: in vivo
Experimental: Five parts of the compound of the present invention, 93.6 parts of dimethylformamide and 1.4 parts of a polyoxyethylene alkyl aryl ether were mixed together and dissolved to obtain an emulsion (1) containing 5% of the active constituent.
The mortality rate was calculated using the following equation. Mortality rate (%)=(number of dead pests/number of test pests)×100
First, 0.8 g of an artificial feed (Insecta LFS, manufactured by Nosan Corporation) and 1 μl of the emulsion (I) were mixed thoroughly, and 0.2 g of the resulting mixture was placed in each of the treatment areas of a plastic test container (volume: 1.4 ml) to complete preparation of a test feed.
Two second-instar larvae of Mythimna separata were inoculated into each treatment area, and the test container was sealed with a plastic lid. The sealed container was placed in a temperature-controlled room at 25° C., and the mortality rate and the amount of feed consumed were determined on the fifth day. The test was repeated. Further, a test performed under the same conditions, but with the exception of excluding the compound of the present invention from the emulsion (1), was used as a control.

SMILES	mortality rate against Mythimna separata, or amount of feed consumed relative to control
O=C(Nc1ccc(C(F)(F)F)cc1)c1cc(Br)c(Cl)cc1NS(=O)(=O)C(F)(F)F [a-124]	100%, or the amount of feed consumed was 10% or less
COC(=O)c1c(NC(=O)c2ccc(C(F)(F)F)cc2NS(=O)(=O)C(F)(F)F)ccc(Br)c1F [a-126]	100%, or the amount of feed consumed was 10% or less
O=C(Nc1ccc(C(F)(F)F)cc1)c1cc(F)c(F)cc1NS(=O)(=O)C(F)(F)F [a-127]	100%, or the amount of feed consumed was 10% or less
O=C(Nc1ccc(C(F)(F)F)cc1)c1cc(Cl)c(Cl)cc1NS(=O)(=O)C(F)(F)F [a-128]	100%, or the amount of feed consumed was 10% or less
O=C(Nc1ccc(C(F)(F)F)cc1)c1cc(Cl)c(F)cc1NS(=O)(=O)C(F)(F)F [a-129]	100%, or the amount of feed consumed was 10% or less
COC(=O)c1ccc(C(F)(F)F)cc1NC(=O)c1cc(Br)c(Cl)cc1NS(=O)(=O)C(F)(F)F [a-131]	100%, or the amount of feed consumed was 10% or less
COC(=O)c1cc(F)c(F)cc1NC(=O)c1cc(Cl)c(Br)cc1NS(=O)(=O)C(F)(F)F [a-132]	100%, or the amount of feed consumed was 10% or less
CC(=O)c1ccc(C(F)(F)F)cc1NC(=O)c1ccc(C(F)(F)F)cc1NS(=O)(=O)C(F)(F)F [a-134]	100%, or the amount of feed consumed was 10% or less
O=C(Nc1ccc(C(F)(F)F)cc1-n1cccn1)c1ccc(C(F)(F)F)cc1NS(=O)(=O)C(F)(F)F [a-135]	100%, or the amount of feed consumed was 10% or less
COC(=O)c1ccc(C(F)(F)F)cc1NC(=O)c1cc(Cl)c(F)cc1NS(=O)(=O)C(F)(F)F [a-137]	100%, or the amount of feed consumed was 10% or less
O=C(Nc1ccc(F)c(F)c1)c1ccc(C(F)(F)F)cc1NS(=O)(=O)C(F)(F)F [a-138]	100%, or the amount of feed consumed was 10% or less
O=C(Nc1cc(C(F)(F)F)ccc1-c1nnco1)c1ccc(C(F)(F)F)cc1NS(=O)(=O)C(F)(F)F [a-139]	100%, or the amount of feed consumed was 10% or less
O=C(Nc1ccc(F)c(C(F)(F)F)c1)c1ccc(Cl)cc1NS(=O)(=O)C(F)(F)C(F)(F)C(F)(F)C(F)(F)F [a-141]	100%, or the amount of feed consumed was 10% or less
O=C(Nc1ccc(F)c(F)c1)c1cc(Br)c(Cl)cc1NS(=O)(=O)C(F)(F)F [a-143]	100%, or the amount of feed consumed was 10% or less
O=C(NCc1ccc(Cl)cc1)c1ccc(C(F)(F)F)cc1NS(=O)(=O)C(F)(F)F [b-1]	100%, or the amount of feed consumed was 10% or less
CC(C)(NC(=O)c1ccc(C(F)(F)F)cc1NS(=O)(=O)C(F)(F)F)c1ccc(Cl)cc1 [b-2]	100%, or the amount of feed consumed was 10% or less
CC(NC(=O)c1ccc(C(F)(F)F)cc1NS(=O)(=O)C(F)(F)F)c1ncc(C(F)(F)F)cc1Cl (stereo not drawn) [b-4]	100%, or the amount of feed consumed was 10% or less
CCC(NC(=O)c1ccc(C(F)(F)F)cc1NS(=O)(=O)C(F)(F)F)c1ccc(C(F)(F)F)cn1 (stereo not drawn) [b-6]	100%, or the amount of feed consumed was 10% or less

Reference: US10793520B2, “Sulfonylaminobenzamide compound and pest control agent” (Nippon Soda Co., Ltd., priority 2016, dated 2020)
